Earlier results as cited in PMC12239574 (mBio, 2025).

System: SARS-CoV-2 with M^pro E166V

Row | SMILES | fold increase in the antiviral EC50 relative to the wild-type virus
1 | CC(C)(C)[C@H](NC(=O)C(F)(F)F)C(=O)N1C[C@H]2[C@@H]([C@H]1C(=O)N[C@H](C#N)C[C@@H]1CCNC1=O)C2(C)C [nirmatrelvir] | 100 fold
2 | Cn1cnc(Cn2c(=O)[nH]/c(=N\c3cc4cn(C)nc4cc3Cl)n(Cc3cc(F)c(F)cc3F)c2=O)n1 [ensitrelvir] | 23 fold
